{"source": "patent US4168206A", "about": "“Impregnated disk method for testing antifungal susceptibility” (Philadelphia College of Osteopathic Medicine, priority 1977, dated 1979)", "format_in_all_cases": "cell-based", "key": {"[1]": {"system": "Candida albicans", "assay": "MIC by impregnated disk method, Candida albicans", "conditions": "Candida albicans", "procedure": "(§1) Stock solutions of the antifungal agents to be tested are preferably prepared by diluting the antifungal agents in the proper nutrient medium. It is presently preferred to prepare dilutions in 10 ml of the proper medium to give the following final concentrations when applied to the disks (all quantities in micrograms per milliliter): 0.05, 0.08, 0.09, 0.1; 0.1 increment increases to 0.9, 1.0; 0.5 increment increases to 10.0; and 12.0, 14.0, 20.0, 25.0 and 50.0. Disks have been prepared by placing 0.05 ml of the above dilutions of antifungal agent containing medium on 6.5 mm diameter disks in 0.01 or 0.02 ml increments. The impregnated disks are then allowed to dry at a temperature preferably below about 10° C. […] The disks may also be dried by a lyophilization or freeze drying process.\n(§2) To perform the tests in accordance with the present inventions, disks impregnated with various concentrations of antifungal agent and nutrient medium and a control disk impregnated only with the corresponding nutrient medium are placed on the fungus to be tested which has been applied to the non-nutrient medium. The disks are the inoculated non-nutrient medium are then incubated at a suitable temperature for a sufficient time to promote growth of the fungus. Any temperature is suitable if it will promote growth of the fungus without adversely affecting the fungus or the activity of the antifungal agent or agents tested. The time of incubation can be determined by observing the extent of growth around the control disk. […] The zones of growth or inhibition around the disks were read at 6, 12, 24, 36 and 48 hours after the disks were placed on the tested fungus.\n(§3) The minimum inhibitory concentration is defined as the lowest concentration of antifungal agent which inhibits visible growth. The disks containing concentrations of antifungal agents below the minimum inhibitory concentration show circumscribed growth of the fungus around the disk. Disks containing concentrations of antifungal agent at or above the minimum inhibitory concentration show no circumscribed growth.\n(§4) Clinical isolates of various fungi listed in Table 1 were obtained from different patients diagnosed as having fungal infections. The fungal inocula were prepared by using a 24-48 hour cultures grown in yeast nitrogen base containing 1% glucose and 0.15% asparagine. After centrifuging, the supernatant was removed, the sedimented cells were washed twice with sterile distilled water and a cell suspension was adjusted to 80% transmission at 520 nm using a Beckman DB-GT grating spectrophotometer.\n(§5) Sterile liquified 2% purified agar was placed in petri dishes and allowed to harden. The surface of the agar was inoculated with a sterile cotton swab saturated with a suspension of an organism. The uniformly swabbed plates were then allowed to dry.\n(§6) Disks were prepared using the dilutions described above for amphotericin B, nystatin and 5-fluorocytosine. 0.05 ml of the dilutions of each antifungal agent diluted with the appropriate nutrient medium were pipetted on 6.5 mm diameter disks. The disks were dried at 4° C. after each application. Control disks were also prepared.\n(§7) Several test disks and a control disk were placed in each petri dish containing the inoculated agar. The disks and petri dishes were then incubated at 29° C. and the minimum inhibitory concentration of the various concentrations of the antifungal agents were read at 6, 12, 24, 36 and 48 hours.\n(§8) In 10 duplicate runs with each strain tested, the variation in minimum inhibitory concentration averaged ±0.05 μg/ml."}, "[2]": {"system": "Candida albicans", "assay": "MIC by broth dilution method, Candida albicans", "conditions": "Candida albicans", "text": "(§9) The preparation of the nutrient media, the antifungal agents and the fungi to be tested in the present invention are similar to those reported in S. Shadomy and A. Espinel-Ingroff, \"Susceptibility Testing Of Antifungal Agents\", Ch. 63, pp. 569-574 in E. H. Lennett, E. H. Spaulding, and J. P. Truant, Eds., Manual Of Clinical Microbiology, 2nd Ed., American Society for Microbiology, Washington, D.C. (1974). This publication describes the susceptibility testing of antifungal agents, namely, amphotericin B, nystatin and 5-fluoro-cytosine (5-FC), by the \"broth dilution method\" and the \"semisolid agar dilution method\". At pages 570-571, it is stated:\nas §8\n(§10) *Broth dilution method conducted in accordance with S. Shadomy and E.\n(§11) Espinel-Ingroff, \"Susceptibility Testing of Antifungal Agents\", Ch. 63,\n(§12) pp. 569-574 in E. H. Spaulding and J. P. Truant, Eds., Manual Of Clinical\n(§13) Microbiology, 2nd Ed., American Society for Microbiology, Washington, […]"}, "[3]": {"system": "C. parapsilosis", "assay": "MIC by impregnated disk method, Candida parapsilosis", "conditions": "Lodderomyces parapsilosis", "procedure": "as §1, §2, §3, §4, §5, §6, §7, §8"}, "[4]": {"system": "C. parapsilosis", "assay": "MIC by broth dilution method, Candida parapsilosis", "conditions": "Lodderomyces parapsilosis", "text": "as §9, §8, §10, §11, §12, §13"}, "[5]": {"system": "C. tropicalis", "assay": "MIC by impregnated disk method, Candida tropicalis", "conditions": "Candida tropicalis; C. tropicalis; disk method; read-out: Minimum Inhibitory Concentration, Disk", "procedure": "as §1, §2\n(§14) The minimum inhibitory concentration is defined as the lowest concentration of antifungal agent which inhibits visible growth. […]\n(§15) Several test disks and a control disk were placed in each petri dish containing the inoculated agar. The disks and petri dishes were then incubated at 29° C. and the minimum inhibitory concentration of the various concentrations of the antifungal agents were read at 6, 12, 24, 36 and 48 hours. […]"}, "[6]": {"system": "C. tropicalis", "assay": "MIC by broth dilution method, Candida tropicalis", "conditions": "Candida tropicalis; C. tropicalis; broth dilution method; read-out: Minimum Inhibitory Concentration, Broth", "text": "as §9, §8, §10, §11, §12, §13"}, "[7]": {"system": "Cryptococcus neoformans", "assay": "MIC by impregnated disk method, Cryptococcus neoformans", "conditions": "Cryptococcus neoformans", "procedure": "as §1, §2, §3, §4, §5, §6, §7, §8"}, "[8]": {"system": "Cryptococcus neoformans", "assay": "MIC by broth dilution method, Cryptococcus neoformans", "conditions": "Cryptococcus neoformans", "text": "as §9, §8, §10, §11, §12, §13"}, "[9]": {"system": "Geotrichum candidum", "assay": "MIC by impregnated disk method, Geotrichum candidum", "conditions": "disk method, read-out: Minimum Inhibitory Concentration, Disk", "procedure": "as §1, §2, §14, §15"}, "[10]": {"system": "Geotrichum candidum", "assay": "MIC by broth dilution method, Geotrichum candidum", "conditions": "broth dilution method, read-out: Minimum Inhibitory Concentration, Broth", "text": "as §9, §8, §10, §11, §12, §13"}, "[11]": {"system": "Saccharomyces cerevisiae", "assay": "MIC by impregnated disk method, Saccharomyces cerevisiae", "conditions": "Saccharomyces cerevisiae", "procedure": "as §1, §2, §3, §4, §5, §6, §7, §8"}, "[12]": {"system": "Saccharomyces cerevisiae", "assay": "MIC by broth dilution method, Saccharomyces cerevisiae", "conditions": "Saccharomyces cerevisiae", "text": "as §9, §8, §10, §11, §12, §13"}, "[13]": {"system": "Trichosporon sp.", "assay": "MIC by impregnated disk method, Trichosporon sp.", "conditions": "Trichosporon sp.; disk method; read-out: Minimum Inhibitory Concentration, Disk", "procedure": "as §1, §2, §14, §15"}, "[14]": {"system": "Trichosporon sp.", "assay": "MIC by broth dilution method, Trichosporon sp.", "conditions": "Trichosporon sp.; broth dilution method; read-out: Minimum Inhibitory Concentration, Broth", "text": "as §9, §8, §10, §11, §12, §13"}, "[15]": {"system": "Torulopsis glabrata", "assay": "MIC by impregnated disk method, Torulopsis glabrata", "conditions": "Nakaseomyces glabratus; Torulopsis glabrata; disk method; read-out: Minimum Inhibitory Concentration, Disk", "procedure": "as §1, §2, §14, §15"}, "[16]": {"system": "Torulopsis glabrata", "assay": "MIC by broth dilution method, Torulopsis glabrata", "conditions": "Nakaseomyces glabratus; Torulopsis glabrata; broth dilution method; read-out: Minimum Inhibitory Concentration, Broth", "text": "as §9, §8, §10, §11, §12, §13"}}, "data": [{"molecule": "Nc1nc(=O)[nH]cc1F", "note": "[5-Fluorocytosine, 5-fluorocytosine]", "values": [{"measurement": "MIC", "setting": "[1]; isolate 1, read-out: Minimum Inhibitory Concentration, Disk", "value": 8.5, "unit": "µg/mL"}, {"measurement": "MIC", "setting": "[1]; isolate 2, read-out: Minimum Inhibitory Concentration, Disk", "value": 0.3, "unit": "µg/mL"}, {"measurement": "MIC", "setting": "[1]; isolate 3, read-out: Minimum Inhibitory Concentration, Disk", "value": 2, "unit": "µg/mL"}, {"measurement": "MIC", "setting": "[1]; isolate 4, read-out: Minimum Inhibitory Concentration, Disk", "value": 6, "unit": "µg/mL"}, {"measurement": "MIC", "setting": "[1]; isolate 5, read-out: Minimum Inhibitory Concentration, Disk", "value": 0.8, "unit": "µg/mL"}, {"measurement": "MIC", "setting": "[1]; isolate 6, read-out: Minimum Inhibitory Concentration, Disk", "value": 0.5, "unit": "µg/mL"}, {"measurement": "MIC", "setting": "[2]; isolate 1, read-out: Minimum Inhibitory Concentration, Broth", "value": 6.5, "unit": "µg/mL"}, {"measurement": "MIC", "setting": "[2]; isolate 2, read-out: Minimum Inhibitory Concentration, Broth", "value": 0.6, "unit": "µg/mL"}, {"measurement": "MIC", "setting": "[2]; isolate 3, read-out: Minimum Inhibitory Concentration, Broth", "value": 3, "unit": "µg/mL"}, {"measurement": "MIC", "setting": "[2]; isolate 4, read-out: Minimum Inhibitory Concentration, Broth", "value": 3.5, "unit": "µg/mL"}, {"measurement": "MIC", "setting": "[2]; isolate 5, read-out: Minimum Inhibitory Concentration, Broth", "value": 0.7, "unit": "µg/mL"}, {"measurement": "MIC", "setting": "[2]; isolate 6, read-out: Minimum Inhibitory Concentration, Broth", "value": 0.7, "unit": "µg/mL"}, {"measurement": "MIC", "setting": "[3]; C. parapsilosis isolate 1, read-out: Minimum Inhibitory Concentration, Disk", "value": 0.9, "unit": "µg/mL"}, {"measurement": "MIC", "setting": "[3]; C. parapsilosis isolate 2, read-out: Minimum Inhibitory Concentration, Disk", "value": 1.5, "unit": "µg/mL"}, {"measurement": "MIC", "setting": "[4]; C. parapsilosis isolate 1, read-out: Minimum Inhibitory Concentration, Broth", "value": 0.8, "unit": "µg/mL"}, {"measurement": "MIC", "setting": "[4]; C. parapsilosis isolate 2, read-out: Minimum Inhibitory Concentration, Broth", "value": 2, "unit": "µg/mL"}, {"measurement": "MIC", "setting": "[5]", "value": 7.5, "unit": "µg/mL"}, {"measurement": "MIC", "setting": "[6]", "value": 6, "unit": "µg/mL"}, {"measurement": "MIC", "setting": "[7]; C. neoformans isolate 2, read-out: Minimum Inhibitory Concentration, Disk", "value": 15, "unit": "µg/mL"}, {"measurement": "MIC", "setting": "[7]; Cryptococcus neoformans isolate 1, read-out: Minimum Inhibitory Concentration, Disk", "value": 10, "unit": "µg/mL"}, {"measurement": "MIC", "setting": "[8]; C. neoformans isolate 2, read-out: Minimum Inhibitory Concentration, Broth", "value": 12, "unit": "µg/mL"}, {"measurement": "MIC", "setting": "[8]; Cryptococcus neoformans isolate 1, read-out: Minimum Inhibitory Concentration, Broth", "value": 8.5, "unit": "µg/mL"}, {"measurement": "MIC", "setting": "[9]", "value": 2.5, "unit": "µg/mL"}, {"measurement": "MIC", "setting": "[10]", "value": 3, "unit": "µg/mL"}, {"measurement": "MIC", "setting": "[11]; S. cerevisiae isolate 2, read-out: Minimum Inhibitory Concentration, Disk", "value": 0.8, "unit": "µg/mL"}, {"measurement": "MIC", "setting": "[11]; Saccharomyces cerevisiae isolate 1, read-out: Minimum Inhibitory Concentration, Disk", "value": 1.5, "unit": "µg/mL"}, {"measurement": "MIC", "setting": "[12]; S. cerevisiae isolate 2, read-out: Minimum Inhibitory Concentration, Broth", "value": 1, "unit": "µg/mL"}, {"measurement": "MIC", "setting": "[12]; Saccharomyces cerevisiae isolate 1, read-out: Minimum Inhibitory Concentration, Broth", "value": 2.5, "unit": "µg/mL"}, {"measurement": "MIC", "setting": "[13]", "value": 50, "unit": "µg/mL"}, {"measurement": "MIC", "setting": "[14]", "value": 50, "unit": "µg/mL"}, {"measurement": "MIC", "setting": "[15]", "value": 0.8, "unit": "µg/mL"}, {"measurement": "MIC", "setting": "[16]", "value": 0.7, "unit": "µg/mL"}]}]}
